Test results reported in ChEMBL document CHEMBL5046240, “Design, synthesis, and evaluation of potent RIPK1 inhibitors with in vivo anti-inflammatory activity” (Eur J Med Chem, 2022).
Calls of active or inactive are those of the source. The calls are words filed in the database; no cut-off is given here.

Key:
HT-29 = assay: Anti-necroptic activity in human HT-29 cells assessed as TNFalpha/Z-VAD (TSZ) induced necroptosis by measuring cell viability preincubated for 1 hr followed by TSZ addition ans measured after 24 hrs by celltiter-glo luminescent cell viability assay; assay type: functional, cell-based
[1] = Efflux ratio of permeability across basolateral to apical side over apical to basolateral side in human Caco-2 cells by LC-MS/MS analysis; assay type: ADME, cell-based
[2] = biological target: Voltage-gated inwardly rectifying potassium channel KCNH2 (Homo sapiens, UniProt Q12809); assay: Inhibition of hERG expressed in CHO cells at -80 mV holding potential measured after 4mins by automated patch-clamp assay; assay type: toxicity, cell-based
Chain of Voltage-gated inwardly rectifying potassium channel KCNH2 (Q12809 whole entry): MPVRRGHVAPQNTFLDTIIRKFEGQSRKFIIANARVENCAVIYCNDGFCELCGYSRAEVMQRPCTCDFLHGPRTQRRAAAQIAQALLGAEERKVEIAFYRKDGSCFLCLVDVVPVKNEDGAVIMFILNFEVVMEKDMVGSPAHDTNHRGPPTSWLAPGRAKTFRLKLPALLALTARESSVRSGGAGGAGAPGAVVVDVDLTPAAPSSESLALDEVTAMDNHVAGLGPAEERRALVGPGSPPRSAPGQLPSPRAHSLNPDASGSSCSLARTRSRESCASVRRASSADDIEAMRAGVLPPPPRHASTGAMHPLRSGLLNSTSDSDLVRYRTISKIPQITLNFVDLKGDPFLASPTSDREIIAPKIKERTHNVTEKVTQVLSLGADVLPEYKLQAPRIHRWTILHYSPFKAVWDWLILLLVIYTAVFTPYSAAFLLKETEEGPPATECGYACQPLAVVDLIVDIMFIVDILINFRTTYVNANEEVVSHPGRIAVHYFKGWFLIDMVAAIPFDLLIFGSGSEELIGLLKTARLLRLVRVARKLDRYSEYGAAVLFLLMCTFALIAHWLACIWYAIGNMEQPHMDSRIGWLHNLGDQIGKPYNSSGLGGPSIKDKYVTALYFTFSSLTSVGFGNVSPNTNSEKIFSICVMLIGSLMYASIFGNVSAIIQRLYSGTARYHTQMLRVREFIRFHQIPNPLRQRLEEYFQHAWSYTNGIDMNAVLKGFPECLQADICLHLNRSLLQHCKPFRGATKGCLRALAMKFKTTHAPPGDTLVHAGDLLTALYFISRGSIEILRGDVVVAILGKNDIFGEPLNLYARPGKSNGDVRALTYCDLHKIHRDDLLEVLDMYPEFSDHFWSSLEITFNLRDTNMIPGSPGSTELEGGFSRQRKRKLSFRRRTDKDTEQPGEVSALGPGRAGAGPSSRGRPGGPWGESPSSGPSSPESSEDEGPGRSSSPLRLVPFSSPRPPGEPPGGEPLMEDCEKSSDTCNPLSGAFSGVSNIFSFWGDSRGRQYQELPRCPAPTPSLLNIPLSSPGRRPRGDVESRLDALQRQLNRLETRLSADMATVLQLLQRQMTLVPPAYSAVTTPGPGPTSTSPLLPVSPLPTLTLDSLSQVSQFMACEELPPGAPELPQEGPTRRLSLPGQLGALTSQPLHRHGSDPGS

CYP2C9 = CYP2C9 (Homo sapiens, UniProt P11712); assay: Inhibition of CYP2C9 (unknown origin) using tolbutamide as cocktail probe substrate at 10 uM preincubated for 20 mins followed by substrate addition and measured after 20 mins by LC-MS/MS analysis relative to control; assay type: ADME; settings: time 40 min
Chain of CYP2C9 (P11712 whole entry): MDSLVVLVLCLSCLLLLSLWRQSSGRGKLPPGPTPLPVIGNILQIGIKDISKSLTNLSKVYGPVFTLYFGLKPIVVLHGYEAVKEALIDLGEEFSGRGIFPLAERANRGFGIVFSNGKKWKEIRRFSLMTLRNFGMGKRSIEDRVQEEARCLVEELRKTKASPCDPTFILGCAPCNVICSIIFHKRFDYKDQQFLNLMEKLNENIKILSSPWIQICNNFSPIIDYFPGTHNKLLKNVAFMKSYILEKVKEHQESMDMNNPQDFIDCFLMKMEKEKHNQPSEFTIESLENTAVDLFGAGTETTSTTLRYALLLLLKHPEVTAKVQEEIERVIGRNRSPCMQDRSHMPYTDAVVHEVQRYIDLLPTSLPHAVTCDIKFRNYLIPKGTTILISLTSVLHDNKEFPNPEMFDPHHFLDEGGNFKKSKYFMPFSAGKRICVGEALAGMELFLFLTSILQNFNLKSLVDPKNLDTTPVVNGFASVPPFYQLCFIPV

CYP3A4 = CYP3A4 (Homo sapiens, UniProt P08684); assay: Inhibition of CYP3A4 (unknown origin) using midazolam as cocktail probe substrate at 10 uM preincubated for 20 mins followed by substrate addition and measured after 20 mins by LC-MS/MS analysis relative to control; assay type: ADME; settings: time 40 min
Chain of CYP3A4 (P08684 whole entry): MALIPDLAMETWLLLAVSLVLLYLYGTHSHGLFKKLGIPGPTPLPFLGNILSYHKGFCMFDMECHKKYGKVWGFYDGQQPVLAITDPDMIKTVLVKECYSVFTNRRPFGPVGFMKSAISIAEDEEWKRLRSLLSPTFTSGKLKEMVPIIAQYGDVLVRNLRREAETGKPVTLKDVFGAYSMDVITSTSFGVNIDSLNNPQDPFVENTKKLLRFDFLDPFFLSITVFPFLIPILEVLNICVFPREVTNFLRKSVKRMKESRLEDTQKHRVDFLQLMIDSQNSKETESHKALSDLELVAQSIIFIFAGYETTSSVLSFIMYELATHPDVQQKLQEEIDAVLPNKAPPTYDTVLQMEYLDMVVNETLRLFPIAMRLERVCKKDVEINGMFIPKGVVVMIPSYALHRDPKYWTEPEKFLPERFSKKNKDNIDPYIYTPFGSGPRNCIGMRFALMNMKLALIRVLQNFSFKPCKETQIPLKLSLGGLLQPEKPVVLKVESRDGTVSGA

[3] = Protein binding in human plasma by LC-MS/MS based equilibrium dialysis method; assay type: ADME, cell-free; settings: read-out: PPB (converted)
[4] = Metabolic stability in human liver microsomes assessed as intrinsic clearance by LC-MS/MS analysis; assay type: ADME, Microsome; settings: read-out: CLH
[5] = Volume of distribution at steady state in Sprague-Dawley rat at 2 mg/kg, iv measured upto 24 hrs by LC-MS/MS analysis; assay type: ADME, organism-based; settings: in vivo, read-out: Vdss
[6] = biological target: T1, Receptor-interacting serine/threonine-protein kinase 1 (Homo sapiens, UniProt Q13546); assay: Binding affinity to wild-type human partial length RIPK1 (M1 to K305 residues) expressed in bacterial expression system measured after 1 hr by Kinomescan method
T1 sequence (Q13546 whole entry): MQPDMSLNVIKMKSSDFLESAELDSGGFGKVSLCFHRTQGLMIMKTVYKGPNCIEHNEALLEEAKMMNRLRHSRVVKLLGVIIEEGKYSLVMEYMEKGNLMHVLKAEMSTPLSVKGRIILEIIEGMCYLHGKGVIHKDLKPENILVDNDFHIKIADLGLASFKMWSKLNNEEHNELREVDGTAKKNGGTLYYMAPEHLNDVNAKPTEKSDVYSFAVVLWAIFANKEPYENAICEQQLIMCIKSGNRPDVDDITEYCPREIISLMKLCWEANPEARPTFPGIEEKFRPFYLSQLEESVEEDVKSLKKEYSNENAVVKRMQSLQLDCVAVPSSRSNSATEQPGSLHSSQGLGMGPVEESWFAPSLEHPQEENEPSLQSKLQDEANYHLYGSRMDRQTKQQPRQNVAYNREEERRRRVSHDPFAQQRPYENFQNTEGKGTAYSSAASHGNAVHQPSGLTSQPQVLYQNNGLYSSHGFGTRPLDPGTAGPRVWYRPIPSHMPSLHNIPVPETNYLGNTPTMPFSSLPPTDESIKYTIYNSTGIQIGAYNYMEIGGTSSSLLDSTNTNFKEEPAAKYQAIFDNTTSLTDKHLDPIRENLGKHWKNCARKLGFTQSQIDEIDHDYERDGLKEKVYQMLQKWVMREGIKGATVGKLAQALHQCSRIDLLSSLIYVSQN

[7] = biological target: T1, Receptor-interacting serine/threonine-protein kinase 1; assay: Inhibition of RIPK1 (unknown origin) using MBP and ATP as substrate preincubated for 10 mins followed by substrate addition and measured after 120 mins by ADP-Glo luminescence assay
Mus musculus = assay: Anti-necroptosis activity against TNFalpha-induced C57BL/6J mouse systemic inflammatory response syndrome model assessed as reduction in lethal shock at 3 mg/kg, ip pretreated for 15 mins and measured upto 72 hrs after TNFalpha stimulation; assay type: functional, organism-based
[8] = Toxicity in C57BL/6J mouse assessed as effect on kidney morphological changes at 5 to 25 mg/kg, po administered daily for 7 days by H and E staining method; assay type: organism-based; settings: in vivo, 168 h, dose 5-25 mg/kg, time 7 day
[9] = Toxicity in C57BL/6J mouse assessed as effect on lung morphological changes at 5 to 25 mg/kg, po administered daily for 7 days by H and E staining method; assay type: organism-based; settings: in vivo, 168 h, dose 5-25 mg/kg, time 7 day
[10] = Half life in Sprague-Dawley rat at 2 mg/kg, iv measured upto 24 hrs by LC-MS/MS analysis; assay type: ADME, organism-based; settings: in vivo
[11] = AUC (0 to 24 hrs) in Sprague-Dawley rat at 2 mg/kg, iv measured upto 24 hrs by LC-MS/MS analysis; assay type: ADME, organism-based; parameters: route intravenous, dose 2 mg/kg, time <=24; settings: in vivo
[12] = Toxicity in C57BL/6J mouse assessed as effect on behavioral change at 5 to 25 mg/kg, po administered daily for 7 days; assay type: organism-based; settings: in vivo, 168 h, dose 5-25 mg/kg, time 7 day
[13] = Toxicity in C57BL/6J mouse assessed as effect on food intake at 5 to 25 mg/kg, po administered daily for 7 days; assay type: organism-based; settings: in vivo, 168 h, dose 5-25 mg/kg, time 7 day
[14] = Protein binding in rat plasma assessed as unbound fraction by LC-MS/MS based equilibrium dialysis method; assay type: ADME, cell-free

- efflux ratio [1]: 1.1
- inhibition at 20 min, 10 µM (CYP2C9): 62%
- inhibition at 20 min, 10 µM (CYP3A4): 17%
- fraction unbound [3]: 0.016
- CLint scaled [4]: 49 mL/min/kg
- Vd [5]: 2.4 L/kg
- Kd [6]: 9.2 nM
- IC50 [7]: 67 nM
- half-life [10]: 1 h
- AUC [11]: 1208 ng·h/mL
- fraction unbound [14]: 0.018
Compound: Cc1ncc(-c2ccc3nc(NC(=O)C4CC4)sc3c2)cc1NC(=O)OC1CCOCC1
- EC50 (HT-29): 17 nM
- IC50 [2]: > 30000 nM
- Activity (Mus musculus): Active
- Activity [8]: Non-Toxic
- Activity [9]: Non-Toxic
- Activity [12]: Non-Toxic
- Activity [13]: Non-Toxic
